This note sets out measurements from PubChem BioAssay AID256 (DTP/NCI, 2004).

In the assay the test system is CD2F1 mice, L1210 leukemia ip, survival T/C. The experiment in a line: NCI In Vivo Anticancer Drug Screen. Data for tumor model L1210 Leukemia (intraperitoneal) in CD2F1 (CDF1) mice. The note with it: higher = longer survival. In short, it runs like this:
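Antitumor effect is scored in animals hosting a serially transplanted tumor. Values compare compound-dosed animals against vehicle-only controls as a simple quotient.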

[1] abbreviates: endpoint: mean survival time, dose: 100.0 mg/kg/injection, schedule: Q04DX003 (ip), vehicle: saline with Tween-80.
Where [2] appears, read: endpoint: mean survival time, dose: 200.0 mg/kg/injection, schedule: Q04DX003 (ip), vehicle: saline with Tween-80.
Setting [3] is: endpoint: mean survival time, dose: 400.0 mg/kg/injection, schedule: Q04DX003 (ip), vehicle: saline with Tween-80.
Where [4] appears, read: endpoint: mean survival time, dose: 75.0 mg/kg/injection, schedule: Q01DX001 (ip), vehicle: saline.
Where [5] appears, read: endpoint: mean survival time, dose: 300.0 mg/kg/injection, schedule: Q01DX001 (ip), vehicle: saline.
The mark [6] stands for this setting: endpoint: mean survival time, dose: 100.0 mg/kg/injection, schedule: Q01DX009 (ip), vehicle: saline with Tween-80.
Setting [7] is: endpoint: mean survival time, dose: 200.0 mg/kg/injection, schedule: Q01DX009 (ip), vehicle: saline with Tween-80.
Setting [8] is: endpoint: mean survival time, dose: 400.0 mg/kg/injection, schedule: Q01DX009 (ip), vehicle: saline with Tween-80.

Where “and” joins values, the source holds several entries; their conditions need not be identical. Identical values can stand only once. Inconclusive results and toxic doses are left out.

Turning to `COC(=O)C1(F)C(=O)NC(=O)NC1OC` (configuration not stated), the T/C by setting is: (endpoint: median survival time, dose: 50.0 mg/kg/injection, schedule: Q01DX005 (ip), vehicle: Klucel (hydroxypropylcellulose) (HPC)) 124 % of control; (endpoint: median survival time, dose: 50.0 mg/kg/injection, schedule: Q01DX005 (ip), vehicle: saline with Tween-80) 124 % of control; (endpoint: median survival time, dose: 50.0 mg/kg/injection, schedule: Q01DX009 (ip), vehicle: Klucel (hydroxypropylcellulose) (HPC)) 121 % of control; (endpoint: median survival time, dose: 72.0 mg/kg/injection, schedule: Q01DX009 (ip), vehicle: Klucel (hydroxypropylcellulose) (HPC)) 153 % of control; (endpoint: median survival time, dose: 100.0 mg/kg/injection, schedule: Q01DX005 (ip), vehicle: saline with Tween-80) 156 % of control; (endpoint: median survival time, dose: 100.0 mg/kg/injection, schedule: Q01DX009 (ip), vehicle: Klucel (hydroxypropylcellulose) (HPC)) 158 % of control and 176 % of control. The T/C reads like this: (endpoint: median survival time, dose: 120.0 mg/kg/injection, schedule: Q01DX009 (ip), vehicle: Klucel (hydroxypropylcellulose) (HPC)) 172 % of control; (endpoint: median survival time, dose: 200.0 mg/kg/injection, schedule: Q01DX005 (ip), vehicle: Klucel (hydroxypropylcellulose) (HPC)) 183 % of control; (endpoint: median survival time, dose: 200.0 mg/kg/injection, schedule: Q01DX005 (ip), vehicle: saline with Tween-80) 178 % of control; (endpoint: median survival time, dose: 200.0 mg/kg/injection, schedule: Q01DX009 (ip), vehicle: Klucel (hydroxypropylcellulose) (HPC)) 159 % of control and 197 % of control and 238 % of control; (endpoint: median survival time, dose: 400.0 mg/kg/injection, schedule: Q01DX005 (ip), vehicle: Klucel (hydroxypropylcellulose) (HPC)) 185 % of control; (endpoint: median survival time, dose: 400.0 mg/kg/injection, schedule: Q01DX005 (ip), vehicle: saline with Tween-80) 112 % of control. For the same compound, the T/C was 104 % of control (endpoint: median survival time, dose: 800.0 mg/kg/injection, schedule: Q01DX005 (ip), vehicle: Klucel (hydroxypropylcellulose) (HPC)); 109 % of control (endpoint: median survival time, dose: 800.0 mg/kg/injection, schedule: Q01DX005 (ip), vehicle: saline with Tween-80); 108 % of control (endpoint: median survival time, dose: 800.0 mg/kg/injection, schedule: Q01DX009 (ip), vehicle: Klucel (hydroxypropylcellulose) (HPC)).

For the compound `CN(C)N1C(=O)c2ccccc2C1=O`, the T/C was 96 % of control (endpoint: mean survival time, dose: 100.0 mg/kg/injection, schedule: Q04DX003 (ip), vehicle: other); 104 % of control (endpoint: mean survival time, dose: 200.0 mg/kg/injection, schedule: Q04DX003 (ip), vehicle: other); 98 % of control (endpoint: mean survival time, dose: 400.0 mg/kg/injection, schedule: Q04DX003 (ip), vehicle: other).

In the case of `S=C(N/N=C/c1ccccn1)Nc1ccccn1`, the T/C was 103 % of control (endpoint: mean survival time, dose: 100.0 mg/kg/injection, schedule: Q04DX002 (ip), vehicle: saline with Tween-80); 114 % of control (endpoint: mean survival time, dose: 200.0 mg/kg/injection, schedule: Q04DX002 (ip), vehicle: saline with Tween-80); 91 % of control (endpoint: mean survival time, dose: 400.0 mg/kg/injection, schedule: Q04DX002 (ip), vehicle: saline with Tween-80).

As to `FC(F)(F)c1ccc2c(c1)N(CCCN1CCN(CCC3OCCCO3)CC1)c1ccccc1S2`, the T/C was 96 % of control (endpoint: mean survival time, dose: 0.78 mg/kg/injection, schedule: Q01DX009 (ip), vehicle: saline); 96 % of control (endpoint: mean survival time, dose: 1.56 mg/kg/injection, schedule: Q01DX009 (ip), vehicle: saline); 94 % of control (endpoint: mean survival time, dose: 3.12 mg/kg/injection, schedule: Q01DX009 (ip), vehicle: saline); 96 % of control (endpoint: mean survival time, dose: 6.25 mg/kg/injection, schedule: Q01DX009 (ip), vehicle: saline); 103 % of control (endpoint: mean survival time, dose: 12.5 mg/kg/injection, schedule: Q01DX009 (ip), vehicle: saline).

For the compound `COc1cc([C@@H]2c3cc4c(cc3[C@H](O)[C@H]3COC(=O)[C@H]23)OCO4)cc(OC)c1OC`, the T/C runs as follows: (endpoint: median survival time, dose: 0.62 mg/kg/injection, schedule: Q01DX009 (ip), vehicle: saline with Tween-80) 122 % of control; (endpoint: median survival time, dose: 0.63 mg/kg/injection, schedule: Q01DX009 (ip), vehicle: saline with Tween-80) 112 % of control; (endpoint: median survival time, dose: 1.0 mg/kg/injection, schedule: Q01DX005 (ip), vehicle: Klucel (hydroxypropylcellulose) (HPC)) 124 % of control; (endpoint: median survival time, dose: 1.25 mg/kg/injection, schedule: Q01DX009 (ip), vehicle: saline with Tween-80) 116 % of control and 120 % of control; (endpoint: median survival time, dose: 1.8 mg/kg/injection, schedule: Q01DX009 (ip), vehicle: saline with Tween-80) 122 % of control; (endpoint: median survival time, dose: 2.0 mg/kg/injection, schedule: Q01DX005 (ip), vehicle: Klucel (hydroxypropylcellulose) (HPC)) 118 % of control. In addition, the T/C was 122 % of control (endpoint: median survival time, dose: 2.5 mg/kg/injection, schedule: Q01DX009 (ip), vehicle: saline with Tween-80); 115 % of control and 111 % of control (endpoint: median survival time, dose: 10.0 mg/kg/injection, schedule: Q01DX009 (ip), vehicle: saline with Tween-80); 155 % of control (endpoint: median survival time, dose: 13.89 mg/kg/injection, schedule: Q01DX009 (ip), vehicle: saline with Tween-80).

As to `CCN(CC)C(=O)Cc1ccc2c3c(cccc13)CC2`, the T/C by setting is: under setting [1], 98 % of control; under setting [2], 98 % of control; under setting [3], 92 % of control.

As for `O=C1C=C(Nc2cccc(C(=O)O)c2)c2ccccc2C1=O`, the T/C under setting [4] is 101 % of control and the T/C under setting [5] was 101 % of control.

Turning to `COC(=O)C#CC(c1ccccc1)(c1ccccc1)c1ccccc1`, the T/C was 103 % of control under setting [6], 101 % of control under setting [7] and 109 % of control under setting [8].

With `CCCCCCCCC1C(CCCCCCCC(=O)N2CCCC2)C2(Cl)C(Cl)=C(Cl)C1(Cl)C2(Cl)Cl` (configuration not stated), the T/C is, setting by setting: under setting [4], 98 % of control; (endpoint: mean survival time, dose: 150.0 mg/kg/injection, schedule: Q01DX001 (ip), vehicle: saline) 104 % of control; under setting [5], 96 % of control.

In the case of `N=c1nc2n(cc1F)[C@@H]1O[C@H](CO)[C@@H](O)[C@@H]1O2`, the T/C by setting is: (endpoint: mean survival time, dose: 17.0 mg/kg/injection, schedule: Q04DX003 (ip), vehicle: saline) 119 % of control; (endpoint: mean survival time, dose: 25.0 mg/kg/injection, schedule: Q01DX009 (ip), vehicle: saline) 155 % of control; (endpoint: mean survival time, dose: 50.0 mg/kg/injection, schedule: Q01DX009 (ip), vehicle: saline) 162 % of control and 188 % of control; (endpoint: mean survival time, dose: 68.0 mg/kg/injection, schedule: Q04DX003 (ip), vehicle: saline) 150 % of control; (endpoint: mean survival time, dose: 100.0 mg/kg/injection, schedule: Q01DX001 (ip), vehicle: saline) 110 % of control; (endpoint: mean survival time, dose: 100.0 mg/kg/injection, schedule: Q01DX009 (ip), vehicle: saline) 193 % of control and 250 % of control. Also, the T/C (endpoint: mean survival time, dose: 200.0 mg/kg/injection, schedule: Q01DX001 (ip), vehicle: saline) was 117 % of control; the T/C (endpoint: mean survival time, dose: 200.0 mg/kg/injection, schedule: Q01DX009 (ip), vehicle: saline) is 224 % of control and 303 % of control; the T/C (endpoint: mean survival time, dose: 400.0 mg/kg/injection, schedule: Q01DX001 (ip), vehicle: saline) was 120 % of control; the T/C (endpoint: mean survival time, dose: 400.0 mg/kg/injection, schedule: Q01DX009 (ip), vehicle: saline) is 305 % of control and 331 % of control; the T/C (endpoint: mean survival time, dose: 800.0 mg/kg/injection, schedule: Q01DX009 (ip), vehicle: saline) is 239 % of control; the T/C (endpoint: median survival time, dose: 16.0 mg/kg/injection, schedule: Q01DX005 (ip), vehicle: saline) is 124 % of control. For the same compound, the T/C is, setting by setting: (endpoint: median survival time, dose: 256.0 mg/kg/injection, schedule: Q01DX005 (ip), vehicle: saline) 216 % of control; (endpoint: median survival time, dose: 512.0 mg/kg/injection, schedule: Q01DX005 (ip), vehicle: saline) 349 % of control.

Take `C=CCCCCCCCCC(=O)NCC1CC1`: the T/C was 94 % of control under setting [6], 100 % of control under setting [7] and 86 % of control under setting [8].

On to `CC(=O)OCc1ccc(Cl)cc1Cl`, for which the T/C by setting is: under setting [6], 98 % of control; under setting [7], 104 % of control; under setting [8], 95 % of control.

`O=C(O)CC(NCc1ccccc1)C(=O)O` (configuration not stated): the T/C runs as follows: under setting [1], 103 % of control; under setting [2], 100 % of control; under setting [3], 97 % of control.

For `NS(=O)(=O)Cc1ccccc1`, the T/C by setting is: (endpoint: mean survival time, dose: 25.0 mg/kg/injection, schedule: Q04DX003 (ip), vehicle: saline) 107 % of control; (endpoint: mean survival time, dose: 50.0 mg/kg/injection, schedule: Q04DX003 (ip), vehicle: saline) 117 % of control; (endpoint: mean survival time, dose: 100.0 mg/kg/injection, schedule: Q04DX003 (ip), vehicle: saline) 90 % of control and 92 % of control.
